Where two headings read alike, the source gives them in different places.
How the values were obtained:
Boophilus microplus = Boophilus microplus test (BOOPMI injection); assay type: in vivo; conditions: application rate 20 μg/animal; injected into the abdomen; after 7 days
How it was run: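 Read-out after 7 days is % efficacy, judged by fertile egg laying, with 100% meaning no fertile eggs from any tick. Compound was given by abdominal injection as a DMSO solution diluted to the desired concentration. Treated ticks were held in dishes in a climate-controlled room.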

Lucilia cuprina larvae = assay: Lucilia cuprina test (LUCICU); assay type: in vivo; conditions: application rate 100 ppm; treated horse meat; after 2 days
How it was run: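 Mortality scored as percent of larvae killed 2 days after exposure. Horse meat was treated with the compound, formulated from DMSO stock diluted with water to the test concentration, and populated with roughly 20 larvae.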

Thrips palmi = Thrips palmi spray test (THRIPL); assay type: in vivo; conditions: application rate 20 ppm; cucumber plants; after 6 days
Description: Thrips palmi Spray Test (THRIPL)
Solvent: 3 parts by weight of dimethylformamide
Emulsifier: 1 part by weight of polyoxyethylene alkylphenyl ether
To produce an appropriate active ingredient formulation, 1 part by weight of active ingredient is mixed with the stated amounts of solvent and emulsifier, and the concentrate is diluted with emulsifier-containing water to the desired concentration. If required, ammonium salts or ammonium salts and penetrants are additionally added in a concentration of 1000 ppm.
Young cucumber plants (Cucumis sativus) are sprayed with an active ingredient formulation of the desired concentration. After drying, filter paper discs with about 100 thrips eggs (Thrips palmi) are placed onto the treated plants and, to give 100% air humidity, covered with housings.
After 6 days, the efficacy in % feeding damage is determined 100% means that there is no feeding damage; 0% means that there is no difference from the untreated control.

Spodoptera frugiperda = Spodoptera frugiperda test (SPODFR spray treatment); assay type: in vivo; conditions: application rate 100 g/ha; maize leaf discs; after 7 days
How it was run: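 Mortality read-out at 7 days, given as % efficacy, where 100% means every caterpillar dead and 0% none. Caterpillars were placed on dried maize leaf discs that had been sprayed with test formulation. That formulation was an acetone/dimethylformamide concentrate diluted in emulsifier-containing water.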

logP (HPLC-MS) = assay type: physicochemical
[1] = tested on: adult engorged Boophilus microplus females of the SP-resistant Parkhurst strain; assay: Boophilus microplus test (DIP); assay type: in vivo; conditions: application rate 100 ppm, after 7 days
Description: Boophilus microplus Test (DIP)
Test animals: adult engorged Boophilus microplus females of the SP-resistant Parkhurst strain
Solvent: dimethyl sulphoxide
10 mg of active ingredient are dissolved in 0.5 ml of dimethyl sulphoxide. For the purpose of preparing a suitable formulation, the active ingredient solution is diluted with water to the concentration desired in each case.
This active ingredient formulation is pipetted into tubes. 8-10 ticks are transferred into a further tube with holes. The tube is immersed into the active ingredient formulation, and all ticks are completely wetted. After the liquid has run out, the ticks are transferred onto filter discs in plastic dishes and stored in a climate-controlled room.
The activity is assessed after 7 days by laying of fertile eggs. Eggs whose fertility is not outwardly visible are stored in glass tubes in a climate-controlled cabinet until the larvae hatch. An efficacy of 100% means that none of the ticks has laid any fertile eggs.

Myzus persicae = assay: Myzus test (MYZUPE spray treatment); assay type: in vivo; conditions: application rate 100 g/ha; Chinese cabbage leaf discs; after 6 days
Description: Myzus Test (MYZUPE Spray Treatment) Solvent: 78 parts by weight of acetone • • 1.5 parts by weight of dimethylformamide Emulsifier: 0.5 part by weight of alkylaryl polyglycol ether To produce an appropriate active ingredient formulation, 1 part by weight of active ingredient is mixed with the stated amounts of solvent and emulsifier, and the concentrate is diluted with emulsifier-containing water to the desired concentration. Leaf discs of Chinese cabbage (Brassica pekinensis) infested by all stages of the green peach aphid (Myzus persicae) are sprayed with an active ingredient formulation of the desired concentration. After 6 days, the efficacy in % is determined. 100% means that all of the aphids have been killed; 0% means that none of the aphids have been killed.

| log p (logP (HPLC-MS); HPLC, reversed-phase column (C18), acidic range pH 2.7, acetonitrile (0.1% formic acid)/water gradient, 43° C., calibration with unbranched alkan-2-ones) | chromatographic logP (logP (HPLC-MS); HPLC, reversed-phase column (C18), acidic range pH 2.7, acetonitrile (0.1% formic acid)/water gradient, 43° C., calibration with unbranched alkan-2-ones, read-out: log p) | chromatographic logP (logP (HPLC-MS); HPLC-MS) | Structure (SMILES) | efficacy (laying of fertile eggs) (Boophilus microplus) [%] | efficacy (kill in %) (Lucilia cuprina larvae) [%] | efficacy in % feeding damage (Thrips palmi) [%] | efficacy in % (Spodoptera frugiperda) [%] | efficacy (laying of fertile eggs) [1] [%] | efficacy in % (Myzus persicae) [%] |
| --- | --- | --- | --- | --- | --- | --- | --- | --- | --- |
| 3.59 | – | – | C#CCn1c(C(=O)NC(c2ccc(F)c(C(F)(F)F)c2)C(F)(F)F)cc2cc(C(=O)NC3CC3)c(Cl)cc21 (stereo not shown) [Compound 6] | 100 | 100 | 90 | 100 | – | – |
| – | 3.78 | 3.8 | CCn1c(C(=O)NC(c2cccc(C(F)(F)F)c2)C(F)(F)F)cc2cc(C(=O)NC3(C#N)CC3)c(Cl)cc21 (stereo not shown) [Compound 7, 6-chloro-N^5-(1-cyanocyclopropyl)-1-ethyl-N^2-{2,2,2-trifluoro-1-[3-(trifluoromethyl)phenyl]ethyl}-1H-indole-2,5-dicarboxamide] | 100 | 100 | 98 | 100 | 100 | 90 |

Source: patent US9107411B2, “Indolecarboxamides and benzimidazolecarboxamides as insecticides and acaricides” (BAYER INTELLECTUAL PROPERTY GMBH, priority 2011, dated 2015)
